Several values for one entry are separate records, joined by “and”; a condition that tells them apart may be missing. Equal entries are not always repeated. Where two headings read alike, the source gives them in different places.
Test system: C. elegans
[1] = Table S2, C. elegans SS assay, 110 μM, averages of 4 data points
[2] = Table S2, C. elegans SS assay, 110 μM, 24 h, averages of 4 data points

Structure (SMILES)	Percentage of motility inhibition 0 h [1]	Percentage of motility inhibition 24 h [2]	Percentage of motility inhibition 24 h (110 µM)
CCC[C@@H]1C[C@@H](C(=O)N[C@@H]([C@H]2O[C@H](SC)[C@H](O)[C@@H](O)[C@H]2O)[C@H](C)Cl)N(C)C1.Cl [Clindamycin (hydrochloride)]	28%	3%	–
Nc1ncnc(N[C@@H]2O[C@H](CO)[C@@H](O)[C@H]2O)c1[N+](=O)[O-] [Clitocine]	0%	4%	–
O=C(/C=C\c1ccc(O)c(O)c1)N[C@@H](Cc1ccc(O)c(O)c1)C(=O)O [Clovamide]	2%	0%	–
Cc1onc(-c2ccccc2Cl)c1C(=O)N[C@@H]1C(=O)N2[C@@H]1SC(C)(C)[C@@H]2C(=O)[O-].O.[Na+] [Cloxacillin (sodium monohydrate)]	14%	4%	–
C[C@@]12C[C@@H](c3ccoc3)OC(=O)[C@@H]1CC[C@]1(C)[C@H]2[C@@H]2C=C[C@@]1(O)C(=O)O2 [Columbin]	0%	1%	–
C=C[C@]1(C)C=C2CC[C@H]3[C@@](C)(CCC[C@@]3(C)C(=O)O)[C@@H]2CC1 [Continentalic acid]	36%	24%	–
O=S(=O)([O-])O.c1c2c(cc3c1OCO3)-c1cc3ccc4c(c3c[n+]1CC2)OCO4 [Coptisine (Sulfate)]	0%	9%	–
[Cl-].c1c2c(cc3c1OCO3)-c1cc3ccc4c(c3c[n+]1CC2)OCO4 [Coptisine (chloride)]	1%	6%	–
C=C[C@H]1[C@H](O[C@@H]2O[C@H](CO)[C@@H](O)[C@H](O)[C@H]2O)OC=C(C(=O)OC)[C@H]1CCOC(=O)c1cc(O)c(O)c(O)c1 [Cornuside]	0%	24%	–
COc1cc2c(cc1OC)[C@H]1[C@@H](C)c3ccc(OC)c(OC)c3CN1CC2 [Corydaline]	0%	8%	–
CC(C)=CCC/C(C)=C/Cc1cc(-c2coc3cc(O)ccc3c2=O)ccc1O [Corylifol A]	40%	4%	–
CN1Cc2c(ccc3c2OCO3)[C@@]2(C)[C@@H](O)Cc3cc4c(cc3[C@@H]12)OCO4 [Corynoline]	13%	0%	–
COc1cc2c(cc1O)CCN1Cc3c(ccc(OC)c3OC)CC21 (centres unmarked) [Corypalmine]	17%	16%	–
CC(/C=C/C=C(\C)C(=O)[O-])=C\C=C\C=C(C)\C=C\C=C(/C)C(=O)[O-].[Na+].[Na+] [Crocetin (disodium)]	0%	5%	–
CC(/C=C/C=C(\C)C(=O)O)=C\C=C\C=C(C)\C=C\C=C(/C)C(=O)O.CNC[C@H](O)[C@@H](O)[C@H](O)[C@H](O)CO.CNC[C@H](O)[C@@H](O)[C@H](O)[C@H](O)CO [Crocetin (meglumine)]	6%	10%	–
CC(/C=C/C=C(\C)C(=O)O[C@@H]1O[C@H](CO)[C@@H](O)[C@H](O)[C@H]1O)=C\C=C\C=C(C)\C=C\C=C(/C)C(=O)O[C@@H]1O[C@H](CO[C@@H]2O[C@H](CO)[C@@H](O)[C@H](O)[C@H]2O)[C@@H](O)[C@H](O)[C@H]1O [Crocin II]	27%	1%	–
Nc1nc(=O)[nH]c2c1ncn2[C@@H]1O[C@H](CO)[C@@H](O)[C@H]1O [Crotonoside]	0%	0%	–
CC(=O)OC(C)(C)CCC(=O)[C@](C)(O)[C@H]1[C@H](O)C[C@@]2(C)[C@@H]3CC=C4[C@@H](C[C@H](O)[C@@H](O)C4(C)C)[C@]3(C)C(=O)C[C@]12C [Cucurbitacin IIa]	0%	6%	–
CC(C)(O)CCC(=O)[C@](C)(O)C1[C@H](O)C[C@@]2(C)[C@@H]3CC=C4[C@@H](C[C@H](O)[C@@H](O)C4(C)C)[C@]3(C)C(=O)C[C@]12C (some centres unmarked) [Cucurbitacin IIb]	7%	43%	–
CC(=O)CC[C@@H]1[C@H]2CC(=C(C)C)C(=O)C[C@@]12C [Curcumenone]	3%	0%	–
C=C1C[C@@]2(O)O[C@@]3(C[C@H]2C(C)C)[C@@H](C)CC[C@@H]13 [Curcumol]	8%	12%	–
C/C1=C/CC[C@H](C)C(=O)C[C@@H](C(C)C)C(=O)C1 [Curdione]	7%	22%	–
COc1cc2c(cc1O)C1Cc3ccc(OC)c(O)c3C[N+]1(C)CC2.[Cl-] (centres unmarked) [Cyclanoline (chloride)]	7%	12%	–

Structure (SMILES)	Percentage of motility inhibition 0 h [1]	Percentage of motility inhibition 24 h [2]	Percentage of motility inhibition 24 h (110 µM)
CCC(C)C1NC(=O)C(C)NC1=O (centres unmarked) [Cyclo(Ile‐Ala)]	16%	22%	–
CC(C)(O)[C@@H]1CC[C@](C)([C@H]2[C@@H](O)C[C@@]3(C)[C@@H]4C[C@H](O)[C@H]5C(C)(C)[C@@H](O)CC[C@@]56C[C@@]46CC[C@]23C)O1 [Cycloastragenol]	8%	31%	–
CC(C)(O)[C@H]1CC[C@@](C)([C@H]2[C@@H](O)C[C@@]3(C)[C@@H]4C[C@H](O)[C@H]5C(C)(C)[C@@H](O)CC[C@@]56C[C@@]46CC[C@]23C)O1 [Cyclogalegenin]	22%	9%	–
CN[C@@H](C)[C@H]1[C@H](O)C[C@@]2(C)[C@@H]3CC[C@H]4C(C)(C)[C@@H](NC)CC[C@@]45C[C@@]35CC[C@]12C [Cyclovirobuxine D]	20%	0%	–
O=c1cc(-c2ccc(O)c(O)c2)oc2cc(O[C@@H]3O[C@H](CO)[C@@H](O)[C@H](O)[C@H]3O)cc(O)c12 [Cynaroside]	20%	0%	–
Cl.NCCS [Cysteamine (hydrochloride)]	23%	6%	–
O=c1cccc2n1C[C@@H]1CNC[C@H]2C1 [Cytisinicline]	–	–	0% and 3%
O=C(CO)[C@@H](O)[C@H](O)[C@H](O)CO [D-Fructose]	–	15%	–
CC(C)(CO)[C@@H](O)C(=O)NCCC(=O)[O-].CC(C)(CO)[C@@H](O)C(=O)NCCC(=O)[O-].[Ca+2] [D-Pantothenic acid (hemicalcium salt)]	48%	1%	–
CC(C)(CO)[C@@H](O)C(=O)NCCC(=O)[O-].[Na+] [D-Pantothenic acid (sodium)]	1%	4%	–
CC(=O)Oc1c(C)c(C)c2c(c1C)CCC(C)(CCC[C@H](C)CCC[C@H](C)CCCC(C)C)O2 (stereo partly drawn) [D-α-Tocopherol acetate]	7%	22%	–
CCN(CC)C(=O)c1cccc(C)c1 [DEET]	59%	25%	–
COc1ccc(CC2c3cc(OC)c(OC)cc3CCN2C)cc1OC (stereo not drawn) [DL‐Laudanosine]	7%	12%	–
COC(=O)N[C@H](C(=O)N1CCC[C@H]1c1ncc(-c2ccc(-c3ccc(-c4cnc([C@@H]5CCCN5C(=O)[C@@H](NC(=O)OC)C(C)C)[nH]4)cc3)cc2)[nH]1)C(C)C.Cl.Cl [Daclatasvir (dihydrochloride)]	39%	2%	–
O=c1c(-c2ccc(O)cc2)coc2cc(O[C@@H]3O[C@H](CO)[C@@H](O)[C@H](O)[C@H]3O)ccc12 [Daidzin]	47% and 26%	–	–
CC(C)=CC/C=C(\C)[C@H]1CC[C@]2(C)[C@@H]1[C@H](O)C[C@@H]1[C@@]3(C)C[C@@H](O)[C@H](O[C@@H]4O[C@H](CO)[C@@H](O)[C@H](O)[C@H]4O[C@@H]4O[C@H](CO)[C@@H](O)[C@H](O)[C@H]4O)C(C)(C)[C@@H]3CC[C@]12C [Damulin A]	5%	0%	–
CN1C[C@@H]2C[C@H]1CN2c1cc2c(cc1F)c(=O)c(C(=O)O)cn2C1CC1.CS(=O)(=O)O [Danofloxacin (mesylate)]	0%	15%	–
CC(C)CN(C[C@@H](O)[C@H](Cc1ccccc1)NC(=O)O[C@H]1CO[C@H]2OCC[C@H]21)S(=O)(=O)c1ccc(N)cc1.CCO [Darunavir (Ethanolate)]	14%	10%	–
COc1cc2c(cc1O)[C@@H](Cc1ccc(O)c(Oc3ccc(C[C@@H]4c5cc(OC)c(OC)cc5CCN4C)cc3)c1)N(C)CC2 [Daurisoline]	23%	12%	–
O=C(O)C1=CO[C@@H](O[C@@H]2O[C@H](CO)[C@@H](O)[C@H](O)[C@H]2O)[C@@H]2C(CO)=C[C@H](O)[C@H]12 [Deacetylasperulosidic Acid]	0%	8%	–
C[C@@H]1O[C@@H](O[C@H]2[C@H](OC(=O)[C@]34CCC(C)(C)C[C@H]3C3=CC[C@@H]5[C@@]6(C)C[C@H](O)[C@H](O[C@@H]7O[C@H](CO)[C@@H](O)[C@H](O)[C@H]7O)C(CO)(CO)[C@@H]6CC[C@@]5(C)[C@]3(C)C[C@H]4O)OC[C@H](O)[C@@H]2O)[C@H](O)[C@H](O)[C@H]1O[C@@H]1OC[C@@H](O)[C@H](O)[C@H]1O [Deapioplatycodin D]	12%	0%	–
C=C1CC[C@@H]2[C@](C)(COC(=O)CCC(=O)O)[C@H](OC(=O)CCC(=O)O)CC[C@@]2(C)[C@@H]1/C=C/C1=CCOC1=O [Dehydroandrographolide succinate]	7% and 0%	–	–

Reference: publication PMC11855827, “High-Throughput Screening of Five Compound Libraries for Anthelmintic Activity and Toxicity Leads to the Discovery of Two Flavonoid Compounds” (International Journal of Molecular Sciences, 2025)
